Drawing on patent publication US10501460B2, “Heterocyclic compounds and uses thereof” (Plexxikon Inc., priority 2013, dated 2019), this text covers IC50 for 22 compounds.

For one assay, the system named is MV-4-11. As to the kind of experiment: Oncology cell growth assay MV-4-11 (CellTiter Glo, 72 hours). The format is cell-based. Conditions: Homo sapiens, MV4-11, 72 h; MV-4-11 cell growth inhibitory activity, 3d. The essentials: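 MV-4-11 cells (MLL-AF4 AML) exposed 72 h to 8-point 1:3 titration, top final 10 μM, 0.2% DMSO. CellTiter Glo luminescence as cell-number readout, normalized to DMSO controls; pIC50 from four-parameter fit.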
(In general: Cellular ATP, detected with luciferase, serves as a proxy for viable cell number.)

The next assay concerns bromodomain. As to the kind of experiment: Bromodomain cell assays of Example 40 (at least one of them). The format is cell-based. The note with it: in at least one of the bromodomain cell assays described in Example 40. The essentials: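 Growth inhibition: 3000 MV-4-11, MOLM-13, MM.1S or neuroblastoma cells/well got an 8-point 1:3 series from 10 μM top (0.2% DMSO) for 72 h, then CellTiter-Glo luminescence. Myc reporter: MV-4-11 with E-box firefly luciferase, 24 h exposure, One-Glo luminescence plus CellTiter-Fluo cell count. pIC50 from four-parameter fit.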

The IC50 is the concentration at which inhibition is half-maximal. High values mean a need for much substance, low ones inhibition by little substance. On to `Cc1noc(C)c1-c1cnc2c(c1)c(CC1CCN(C(=O)c3ccccc3)CC1)cn2C` [P-0115, [4-[[5-(3,5-dimethylisoxazol-4-yl)-1-methyl-pyrrolo[2,3-b]pyridin-3-yl]methyl]-1-piperidyl]-phenyl-methanone], for which the IC50 in the assay with MV-4-11 is at most 1 µM; in the assay with bromodomain, below 10 µM.

As for `CCNC(=O)N1CCC(Cc2cn(C)c3ncc(-c4c(C)noc4C)cc23)CC1` [P-0117, 4-[[5-(3,5-dimethylisoxazol-4-yl)-1-methyl-pyrrolo[2,3-b]pyridin-3-yl]methyl]-N-ethyl-piperidine-1-carboxamide], the half-inhibitory concentration (IC50) with MV-4-11 was at most 1 µM; with bromodomain it was below 10 µM.

With `CCC(c1cn(C)c2ncc(-c3c(C)noc3C)cc12)C1CCC(F)(F)CC1` (centres unmarked) [P-0118, 4-[3-[1-(4,4-difluorocyclohexyl)propyl]-1-methyl-pyrrolo[2,3-b]pyridin-5-yl]-3,5-dimethyl-isoxazole], the 50% inhibitory concentration (IC50) in the assay on MV-4-11 is at most 1 µM; with bromodomain, below 10 µM.

Consider `CC(=O)N1CCC(Cc2cn(C)c3ncc(-c4c(C)noc4C)cc23)CC1` [P-0120, 1-[4-[[5-(3,5-dimethylisoxazol-4-yl)-1-methyl-pyrrolo[2,3-b]pyridin-3-yl]methyl]-1-piperidyl]ethanone], for which the IC50 is 1 to 10 µM in the assay on MV-4-11 and below 10 µM with bromodomain.

As for `Cc1noc(C)c1-c1cnc2c(-c3cnn(C)c3)cn(S(=O)(=O)c3ccccc3F)c2c1` [P-0121, 4-[1-(2-fluorophenyl)sulfonyl-3-(1-methylpyrazol-4-yl)pyrrolo[3,2-b]pyridin-6-yl]-3,5-dimethyl-isoxazole], the IC50 in the assay with MV-4-11 was at most 1 µM; in the assay with bromodomain, below 10 µM.

Regarding `Cc1noc(C)c1-c1cnc2c(-c3cnn(C)c3)cn(S(=O)(=O)c3cccc(F)c3)c2c1` [P-0122, 4-[1-(3-fluorophenyl)sulfonyl-3-(1-methylpyrazol-4-yl)pyrrolo[3,2-b]pyridin-6-yl]-3,5-dimethyl-isoxazole], the IC50 was at most 1 µM in the assay on MV-4-11 and below 10 µM in the assay with bromodomain.

Take `Cc1noc(C)c1-c1cnc2c(-c3cnn(C)c3)cn(S(=O)(=O)c3ccc(F)cc3)c2c1` [P-0123, 4-[1-(4-fluorophenyl)sulfonyl-3-(1-methylpyrazol-4-yl)pyrrolo[3,2-b]pyridin-6-yl]-3,5-dimethyl-isoxazole]: the figures for the half-maximal inhibitory concentration (IC50) in the assay on MV-4-11 and in the assay with bromodomain were at most 1 µM and below 10 µM, respectively.

With `CCn1cc(-c2cn(S(=O)(=O)c3ccccc3F)c3cc(-c4c(C)noc4C)cnc23)cn1` [P-0125, 4-[3-(1-ethylpyrazol-4-yl)-1-(2-fluorophenyl)sulfonyl-pyrrolo[3,2-b]pyridin-6-yl]-3,5-dimethyl-isoxazole], the IC50 was at most 1 µM with MV-4-11 and below 10 µM in the assay with bromodomain.

For `C=CCn1cc(-c2cn(S(=O)(=O)c3ccccc3)c3cc(-c4c(C)noc4C)cnc23)cn1` [P-0126, 4-[3-(1-allylpyrazol-4-yl)-1-(benzenesulfonyl)pyrrolo [3,2-b]pyridin-6-yl]-3,5-dimethyl-isoxazole], the 50% inhibitory concentration (IC50) in the assay on MV-4-11 was at most 1 µM; with bromodomain, below 10 µM.

With `C=CCn1cc(-c2cn(S(=O)(=O)c3ccccc3F)c3cc(-c4c(C)noc4C)cnc23)cn1` [P-0127, 4-[3-(1-allylpyrazol-4-yl)-1-(2-fluorophenyl)sulfonyl-pyrrolo[3,2-b]pyridin-6-yl]-3,5-dimethyl-isoxazole], the figures for the half-inhibitory concentration (IC50) with MV-4-11 and with bromodomain were at most 1 µM and below 10 µM, respectively.

For the compound `C=CCn1cc(-c2cn(S(=O)(=O)C3CCCC3)c3cc(-c4c(C)noc4C)cnc23)cn1` [P-0128, 4-[3-(1-allylpyrazol-4-yl)-1-cyclopentylsulfonyl-pyrrolo [3,2-b]pyridin-6-yl]-3,5-dimethyl-isoxazole], the figures for the half-inhibitory concentration (IC50) in the assay on MV-4-11 and with bromodomain were at most 1 µM and below 10 µM, respectively.

Take `C=CCn1cc(-c2cn(S(=O)(=O)CCC(F)(F)F)c3cc(-c4c(C)noc4C)cnc23)cn1` [P-0129, 4-[3-(1-allylpyrazol-4-yl)-1-(3,3,3-trifluoropropylsulfonyl)pyrrolo[3,2-b]pyridin-6-yl]-3,5-dimethyl-isoxazole]: the results for the half-maximal inhibitory concentration (IC50) in the assay with MV-4-11 and in the assay with bromodomain were at most 1 µM and below 10 µM, respectively.

On to `Cc1noc(C)c1-c1cnc2c(-c3cnn(C(F)F)c3)cn(S(=O)(=O)c3ccccc3)c2c1` [P-0131, 4-[1-(benzenesulfonyl)-3-[1-(difluoromethyl)pyrazol-4-yl]pyrrolo[3,2-b]pyridin-6-yl]-3,5-dimethyl-isoxazole], for which the IC50 in the assay on MV-4-11 is at most 1 µM; in the assay with bromodomain, below 10 µM.

On to `Cc1noc(C)c1-c1cnc2c(-c3cnn(C(F)F)c3)cn(S(=O)(=O)c3ccccc3F)c2c1` [P-0132, 4-[3-[1-(difluoromethyl)pyrazol-4-yl]-1-(2-fluorophenyl)sulfonyl-pyrrolo[3,2-b]pyridin-6-yl]-3,5-dimethyl-isoxazole], for which the concentration for half-maximal inhibition (IC50) with MV-4-11 was at most 1 µM; in the assay with bromodomain it was below 10 µM.

Consider `Cc1noc(C)c1-c1cnc2c(-c3cnn(C(F)F)c3)cn(S(=O)(=O)C3CCC3)c2c1` [P-0134, 4-[1-cyclobutylsulfonyl-3-[1-(difluoromethyl)pyrazol-4-yl]pyrrolo[3,2-b]pyridin-6-yl]-3,5-dimethyl-isoxazole], for which the 50% inhibitory concentration (IC50) was at most 1 µM in the assay on MV-4-11 and below 10 µM with bromodomain.

In the case of `CCCS(=O)(=O)n1cc(-c2cnn(C(F)F)c2)c2ncc(-c3c(C)noc3C)cc21` [P-0135, 4-[3-[1-(difluoromethyl)pyrazol-4-yl]-1-propylsulfonyl-pyrrolo [3,2-b]pyridin-6-yl]-3,5-dimethyl-isoxazole], the results for the IC50 in the assay on MV-4-11 and with bromodomain were at most 1 µM and below 10 µM, respectively.

Take `Cc1noc(C)c1-c1cnc2c(-c3cnn(C(F)F)c3)cn(S(=O)(=O)CCC(F)(F)F)c2c1` [P-0136, 4-[3-[1-(difluoromethyl)pyrazol-4-yl]-1-(3,3,3-trifluoropropylsulfonyl)pyrrolo[3,2-b]pyridin-6-yl]-3,5-dimethyl-isoxazole]: the values for the IC50 in the assay with MV-4-11 and in the assay with bromodomain were 1 to 10 µM and below 10 µM, respectively.

As for `C=CCn1cc(-c2cn(S(=O)(=O)CCC)c3cc(-c4c(C)noc4C)cnc23)cn1` [P-0137, 4-[3-(1-allylpyrazol-4-yl)-1-propylsulfonyl-pyrrolo[3,2-b]pyridin-6-yl]-3,5-dimethyl-isoxazole], the 50% inhibitory concentration (IC50) is at most 1 µM in the assay with MV-4-11 and below 10 µM with bromodomain.

`C=CCn1cc(-c2cn(S(=O)(=O)C(C)CC)c3cc(-c4c(C)noc4C)cnc23)cn1` (centres unmarked) [P-0138, 4-[3-(1-allylpyrazol-4-yl)-1-sec-butylsulfonyl-pyrrolo[3,2-b]pyridin-6-yl]-3,5-dimethyl-isoxazole]: the concentration for half-maximal inhibition (IC50) was at most 1 µM with MV-4-11 and below 10 µM with bromodomain.

Consider `C=CCn1cc(-c2cn(S(=O)(=O)C3CC3)c3cc(-c4c(C)noc4C)cnc23)cn1` [P-0139, 4-[3-(1-allylpyrazol-4-yl)-1-cyclopropylsulfonyl-pyrrolo[3,2-b]pyridin-6-yl]-3,5-dimethyl-isoxazole], for which the IC50 with MV-4-11 was at most 1 µM; with bromodomain it was below 10 µM.

In the case of `C=CCn1cc(-c2cn(S(=O)(=O)CC3CC3)c3cc(-c4c(C)noc4C)cnc23)cn1` [P-0140, 4-[3-(1-allylpyrazol-4-yl)-1-(cyclopropylmethylsulfonyl)pyrrolo[3,2-b]pyridin-6-yl]-3,5-dimethyl-isoxazole], the IC50 is at most 1 µM in the assay on MV-4-11 and below 10 µM in the assay on bromodomain.

Turning to `Cc1noc(C)c1-c1cnc2[nH]cc(Sc3cccc(F)c3)c2c1` [P-0141, 4-[3-(3-fluorophenyl)sulfanyl-1H-pyrrolo[2,3-b]pyridin-5-yl]-3,5-dimethyl-isoxazole], the IC50 with MV-4-11 was 1 to 10 µM; in the assay on bromodomain it was below 10 µM.
